How the values were obtained:
Assay in all cases: MIC by broth microdilution (NCCLS M7-A5)
[1] = test system: Enterobacter cloacae B1102; settings: E. cloacae B1102
[2] = test system: Klebsiella pneumoniae CF104
[3] = test system: Pseudomonas aeruginosa 1973E
[4] = test system: Enterobacter cloacae ATCC13047/CRO-R; settings: E. cloacae ATCC13047/CRO-R
[5] = test system: Enterobacter cloacae M4018; settings: E. cloacae M4018
[6] = test system: Enterobacter aerogenes Zayakosky; settings: E. aerogenes Zayakosky
[7] = test system: Pseudomonas aeruginosa MK1184
[8] = test system: Acinetobacter sp. J2
[9] = test system: Serratia marcescens S6
[10] = test system: Enterobacter cloacae P99
[11] = test system: Stenotrophomonas malthophilia 1AC736; settings: Stenotrophomonas maltophilia 1AC736
[12] = test system: Enterobacter aerogenes B1; settings: E. aerogenes B1
[13] = test system: Enterobacter cloacae MRW; settings: E. cloacae MRW
[14] = + compound 323 and clavulanate, 4 mg/L each
[15] = + 102 + clavulanate, 4 mg/L each
[16] = + 103 + clavulanate, 4 mg/L each
[17] = + 111 + clavulanate, 4 mg/L each
[18] = + 202 + clavulanate, 4 mg/L each
[19] = + 206 + clavulanate, 4 mg/L each
[20] = + 323 + clavulanate, 4 mg/L each
[21] = + 324 + clavulanate, 4 mg/L each

In the case of `CC1C(NC(=O)C(=NOCc2cc(=O)c(O)cn2O)c2csc(N)n2)C(=O)N1S(=O)(=O)O` (centres unmarked) [Compound 1], the “Minimal Inhibitory Concentration of antibiotic” value (shortened to “Minimal Inhibitory Concentration”) ([1]; + clavulanate at fixed 4 mg/L) is reported as 32 mg/L, the “Minimal Inhibitory Concentration” value ([1]; + compound 206 at fixed 4 mg/L) is reported as 16 mg/L and the “Minimal Inhibitory Concentration” value [1, 14] is reported as 8 mg/L. The “Minimal Inhibitory Concentration” value ([1]; + compound 501 at fixed 4 mg/L) was 16 mg/L, the “Minimal Inhibitory Concentration” value ([1]; antibiotic alone) was >32 mg/L and the MIC of antibiotic [2, 15] was 1 µg/mL. The MIC of antibiotic ([2]; + 102 + sulbactam, 4 mg/L each) was 1 µg/mL, the MIC of antibiotic [2, 16] was 0.5 µg/mL and the MIC of antibiotic [2, 17] was <0.06 µg/mL. For the same molecule, the MIC of antibiotic [2, 18] was 2 µg/mL, the MIC of antibiotic [2, 19] was 0.25 µg/mL and the MIC of antibiotic [2, 20] was 2 µg/mL. The MIC of antibiotic ([2]; + 323 + sulbactam, 4 mg/L each) was 1 µg/mL, the MIC of antibiotic [2, 21] was 1 µg/mL and the MIC of antibiotic ([2]; + 501 4 mg/L) was 0.5 µg/mL. For the same molecule, the MIC of antibiotic ([2]; + clavulanate 4 mg/L) was 0.5 µg/mL, the MIC of antibiotic ([2]; antibiotic alone) was >32 µg/mL and the MIC of antibiotic [3, 15] was 2 µg/mL. For the same molecule, the MIC of antibiotic ([3]; + 102 + sulbactam, 4 mg/L each) was 4 µg/mL, the MIC of antibiotic [3, 16] was 4 µg/mL and the MIC of antibiotic [3, 17] was 4 µg/mL. The MIC of antibiotic [3, 18] was 4 µg/mL, the MIC of antibiotic [3, 19] was 4 µg/mL and the MIC of antibiotic [3, 20] was 8 µg/mL. It also gave an MIC of antibiotic ([3]; + 323 + sulbactam, 4 mg/L each) of 4 µg/mL, an MIC of antibiotic [3, 21] of 8 µg/mL and an MIC of antibiotic ([3]; + 501 4 mg/L) of 8 µg/mL. For the same molecule, the MIC of antibiotic ([3]; + clavulanate 4 mg/L) was 8 µg/mL, the MIC of antibiotic ([3]; antibiotic alone) was 16 µg/mL and the “Minimal Inhibitory Concentration” value ([4]; + clavulanate at fixed 4 mg/L) was >32 mg/L. The “Minimal Inhibitory Concentration” value ([4]; + compound 206 at fixed 4 mg/L) was >32 mg/L, the “Minimal Inhibitory Concentration” value [4, 14] was 8 mg/L and the “Minimal Inhibitory Concentration” value ([4]; + compound 501 at fixed 4 mg/L) was >32 mg/L. The “Minimal Inhibitory Concentration” value ([4]; antibiotic alone) was >32 mg/L, the “Minimal Inhibitory Concentration” value ([5]; + clavulanate at fixed 4 mg/L) was >32 mg/L and the “Minimal Inhibitory Concentration” value ([5]; + compound 206 at fixed 4 mg/L) was 8 mg/L. For the same molecule, the “Minimal Inhibitory Concentration” value [5, 14] was 2 mg/L, the “Minimal Inhibitory Concentration” value ([5]; + compound 501 at fixed 4 mg/L) was 16 mg/L and the “Minimal Inhibitory Concentration” value ([5]; antibiotic alone) was 32 mg/L. For the same molecule, the “Minimal Inhibitory Concentration” value ([6]; + clavulanate at fixed 4 mg/L) was >32 mg/L, the “Minimal Inhibitory Concentration” value ([6]; + compound 206 at fixed 4 mg/L) was >32 mg/L and the “Minimal Inhibitory Concentration” value [6, 14] was 16 mg/L. For the same molecule, the “Minimal Inhibitory Concentration” value ([6]; + compound 501 at fixed 4 mg/L) was >32 mg/L, the “Minimal Inhibitory Concentration” value ([6]; antibiotic alone) was >32 mg/L and the MIC of antibiotic [7, 15] was 4 µg/mL. For the same molecule, the MIC of antibiotic ([7]; + 102 + sulbactam, 4 mg/L each) was 32 µg/mL, the MIC of antibiotic [7, 16] was 8 µg/mL and the MIC of antibiotic [7, 17] was 8 µg/mL. For the same molecule, the MIC of antibiotic [7, 18] was 8 µg/mL, the MIC of antibiotic [7, 19] was >32 µg/mL and the MIC of antibiotic [7, 20] was 16 µg/mL. For the same molecule, the MIC of antibiotic ([7]; + 323 + sulbactam, 4 mg/L each) was 4 µg/mL, the MIC of antibiotic [7, 21] was 8 µg/mL and the MIC of antibiotic ([7]; + 501 4 mg/L) was >32 µg/mL. For the same molecule, the MIC of antibiotic ([7]; + clavulanate 4 mg/L) was >32 µg/mL, the MIC of antibiotic ([7]; antibiotic alone) was >32 µg/mL and the MIC of antibiotic ([8]; Acinetobacter baumannii J2, + 102 + clavulanate, 4 mg/L each) was 4 µg/mL. For the same molecule, the MIC of antibiotic ([8]; Acinetobacter baumannii J2, + 102 + sulbactam, 4 mg/L each) was 2 µg/mL, the MIC of antibiotic ([8]; Acinetobacter baumannii J2, + 103 + clavulanate, 4 mg/L each) was 8 µg/mL and the MIC of antibiotic ([8]; Acinetobacter baumannii J2, + 111 + clavulanate, 4 mg/L each) was 4 µg/mL. The MIC of antibiotic ([8]; Acinetobacter baumannii J2, + 202 + clavulanate, 4 mg/L each) was 4 µg/mL, the MIC of antibiotic ([8]; Acinetobacter baumannii J2, + 206 + clavulanate, 4 mg/L each) was 4 µg/mL and the MIC of antibiotic ([8]; Acinetobacter baumannii J2, + 323 + clavulanate, 4 mg/L each) was 16 µg/mL. The MIC of antibiotic ([8]; Acinetobacter baumannii J2, + 323 + sulbactam, 4 mg/L each) was 1 µg/mL, the MIC of antibiotic ([8]; Acinetobacter baumannii J2, + 324 + clavulanate, 4 mg/L each) was 32 µg/mL and the MIC of antibiotic ([8]; Acinetobacter baumannii J2, + 501 4 mg/L) was <0.06 µg/mL. For the same molecule, the MIC of antibiotic ([8]; Acinetobacter baumannii J2, + clavulanate 4 mg/L) was >32 µg/mL, the MIC of antibiotic ([8]; Acinetobacter baumannii J2, antibiotic alone) was >32 µg/mL and the MIC of antibiotic ([8]; Acinetobacter sp. J2, antibiotic alone, no inhibitor) was >22 µg/mL. For the same molecule, the MIC of antibiotic [9, 15] was 0.25 µg/mL, the MIC of antibiotic ([9]; + 102 + sulbactam, 4 mg/L each) was 0.5 µg/mL and the MIC of antibiotic [9, 16] was 0.25 µg/mL. For the same molecule, the MIC of antibiotic [9, 17] was 0.25 µg/mL, the MIC of antibiotic [9, 18] was 0.5 µg/mL and the MIC of antibiotic [9, 19] was 4 µg/mL. It also gave an MIC of antibiotic [9, 20] of 0.25 µg/mL, an MIC of antibiotic ([9]; + 323 + sulbactam, 4 mg/L each) of 0.5 µg/mL and an MIC of antibiotic [9, 21] of 1 µg/mL. For the same molecule, the MIC of antibiotic ([9]; + 501 4 mg/L) was 4 µg/mL, the MIC of antibiotic ([9]; + clavulanate 4 mg/L) was 4 µg/mL and the MIC of antibiotic ([9]; antibiotic alone) was >32 µg/mL. It also gave an MIC of antibiotic ([9]; antibiotic alone, no inhibitor) of 1 µg/mL, an MIC of antibiotic [10, 15] of 4 µg/mL and an MIC of antibiotic ([10]; + 102 + sulbactam, 4 mg/L each) of 8 µg/mL. For the same molecule, the MIC of antibiotic [10, 16] was 32 µg/mL, the MIC of antibiotic [10, 17] was 4 µg/mL and the MIC of antibiotic [10, 18] was 16 µg/mL. The MIC of antibiotic [10, 19] was 8 µg/mL, the MIC of antibiotic [10, 20] was 4 µg/mL and the MIC of antibiotic ([10]; + 323 + sulbactam, 4 mg/L each) was 4 µg/mL. It also gave an MIC of antibiotic [10, 21] of 4 µg/mL, an MIC of antibiotic ([10]; + 501 4 mg/L) of 16 µg/mL and an MIC of antibiotic ([10]; + clavulanate 4 mg/L) of 32 µg/mL. The MIC of antibiotic ([10]; antibiotic alone) was >32 µg/mL, the MIC of antibiotic [11, 15] was 0.125 µg/mL and the MIC of antibiotic ([11]; + 102 + sulbactam, 4 mg/L each) was 2 µg/mL. It also gave an MIC of antibiotic [11, 16] of 0.125 µg/mL, an MIC of antibiotic [11, 17] of 0.125 µg/mL and an MIC of antibiotic [11, 18] of 0.125 µg/mL. The MIC of antibiotic [11, 19] was 0.125 µg/mL, the MIC of antibiotic [11, 20] was 0.125 µg/mL and the MIC of antibiotic ([11]; + 323 + sulbactam, 4 mg/L each) was 0.125 µg/mL. For the same molecule, the MIC of antibiotic [11, 21] was 0.125 µg/mL, the MIC of antibiotic ([11]; + 501 4 mg/L) was 0.25 µg/mL and the MIC of antibiotic ([11]; + clavulanate 4 mg/L) was 0.5 µg/mL. For the same molecule, the MIC of antibiotic ([11]; antibiotic alone) was 1 µg/mL, the “Minimal Inhibitory Concentration” value ([12]; + clavulanate at fixed 4 mg/L) was >32 mg/L and the “Minimal Inhibitory Concentration” value ([12]; + compound 206 at fixed 4 mg/L) was 16 mg/L. For the same molecule, the “Minimal Inhibitory Concentration” value [12, 14] was 4 mg/L, the “Minimal Inhibitory Concentration” value ([12]; + compound 501 at fixed 4 mg/L) was >32 mg/L and the “Minimal Inhibitory Concentration” value ([12]; antibiotic alone) was 32 mg/L. For the same molecule, the “Minimal Inhibitory Concentration” value ([13]; + clavulanate at fixed 4 mg/L) was 32 mg/L, the “Minimal Inhibitory Concentration” value ([13]; + compound 206 at fixed 4 mg/L) was 16 mg/L and the “Minimal Inhibitory Concentration” value [13, 14] was 4 mg/L. The “Minimal Inhibitory Concentration” value ([13]; + compound 501 at fixed 4 mg/L) was 32 mg/L and the “Minimal Inhibitory Concentration” value ([13]; antibiotic alone) was >32 mg/L.

Source: patent US9346799B2, “Useful combinations of monobactam antibiotics with beta-lactamase inhibitors” (Basilea Pharmaceutica AG, priority 2005, dated 2016)
